The results in this text go back to US9169260B2 (MERCK SHARP & DOHME CORP., priority 2011, dated 2015).

Where only a bound is given, the exact number is not on record here.

In the first assay the target is GST tagged IRAK-4 (Homo sapiens (Human), UniProt Q9NWZ3). Description: IRAK-4 Kinase Assay (IMAP fluorescence polarization). In kind it is biochemical.
GST tagged IRAK-4, sequence (Q9NWZ3 whole entry): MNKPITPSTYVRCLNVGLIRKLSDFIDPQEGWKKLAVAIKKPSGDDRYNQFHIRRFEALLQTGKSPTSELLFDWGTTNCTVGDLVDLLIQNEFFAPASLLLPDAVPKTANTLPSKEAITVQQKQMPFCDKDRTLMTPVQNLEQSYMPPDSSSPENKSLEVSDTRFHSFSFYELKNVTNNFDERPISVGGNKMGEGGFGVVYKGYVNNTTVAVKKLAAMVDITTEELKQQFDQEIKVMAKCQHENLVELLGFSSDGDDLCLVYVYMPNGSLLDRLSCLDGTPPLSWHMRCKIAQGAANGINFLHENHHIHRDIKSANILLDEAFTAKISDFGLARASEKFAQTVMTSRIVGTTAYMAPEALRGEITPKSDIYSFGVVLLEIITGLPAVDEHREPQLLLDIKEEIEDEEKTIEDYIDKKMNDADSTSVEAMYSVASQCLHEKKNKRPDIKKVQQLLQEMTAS
Settings: not given
Summed up: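 Activity was read by IMAP fluorescence polarization, where phosphopeptide binding to M(III) nanoparticles raises FP. The 30-minute, 25° C reaction used 100 μM ATP, 100 nM RP7030 substrate and 0.5 nM GST-IRAK-4 in pH 7.2 Tris buffer with MgCl2, DTT and Tween 20.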
For orientation: Polarisation of emitted light reports the rotation of a fluorescent probe.
By IC50 is commonly meant the concentration that gives 50% inhibition. Lower therefore signals greater potency in that assay. Compound “N-(3-(4-(aminomethyl)cyclohexyl)-1-(p-tolyl)-1H-pyrazol-5-yl)pyrazolo[1,5-a]pyrimidine-3-carboxamide [Example 184]” had a 50% inhibitory concentration (IC50) of less than 0.1 µM.

The assay is the same for the next values; noted with them: 100 μM ATP, 30 minutes at 25° C.
In the case of `Cc1ccc(-n2nc(N3CCN(S(C)(=O)=O)CC3)cc2NC(=O)c2cnn3cccnc23)nc1` [Example 199, N-(1-(5-methylpyridin-2-yl)-3-(4-(methylsulfonyl)piperazin-1-yl)-1H-pyrazol-5-yl)pyrazolo[1,5-a]pyrimidine-3-carboxamide], the IC50 was less than 0.1 µM.
Consider `Cc1ccc(-n2nc(C3CN(Cc4cncs4)C3)cc2NC(=O)c2cnn3cccnc23)cc1` [Example 312, N-{1-(4-methylphenyl)-3-[1-(1,3-thiazol-5-ylmethyl)azetidin-3-yl]-1H-pyrazol-5-yl}pyrazolo[1,5-a]pyrimidine-3-carboxamide], for which the IC50 is less than 0.1 µM.
`Cc1ccc(-n2nc(C3CCN(CC4CC4)CC3)cc2NC(=O)c2cnn3cccnc23)cc1` [Example 221, N-{3-[1-(cyclopropylmethyl)piperidin-4-yl]-1-(4-methylphenyl)-1H-pyrazol-5-yl}pyrazolo[1,5-a]pyrimidine-3-carboxamide] came in with an IC50 of less than 0.1 µM.
`Cc1ccc(-n2nc(C3CCN(C4CCCOC4)CC3)cc2NC(=O)c2cnn3cccnc23)nc1` (stereo not shown) [Example 264, N-{1-(5-methylpyridin-2-yl)-3-[1-(tetrahydro-2H-pyran-3-yl)piperidin-4-yl]-1H-pyrazol-5-yl}pyrazolo[1,5-a]pyrimidine-3-carboxamide] came in with an IC50 of less than 0.1 µM.
Compound `Cc1ccc(-n2nc(C3CCN(C4CCC(N(C)S(C)(=O)=O)CC4)CC3)cc2NC(=O)c2cnn3cccnc23)cc1` (stereo not shown) [Example 251, N-[3-(1-{4-[methyl(methylsulfonyl)amino]cyclohexyl}piperidin-4-yl)-1-(4-methylphenyl)-1H-pyrazol-5-yl]pyrazolo[1,5-a]pyrimidine-3-carboxamide] showed an IC50 of less than 0.1 µM.
In the case of `Cc1ccc(-n2nc(C3CCN(S(=O)(=O)c4sc(C)nc4C)CC3)cc2NC(=O)c2cnn3cccnc23)cc1` [Example 364, N-[3-{1-[(2,4-dimethyl-1,3-thiazol-5-yl)sulfonyl]piperidin-4-yl}-1-(4-methylphenyl)-1H-pyrazol-5-yl]pyrazolo[1,5-a]pyrimidine-3-carboxamide], the IC50 was less than 0.1 µM.
Turning to `CC(C)N1CCC(c2cc(NC(=O)c3cnn4cccnc34)n(-c3ccc(C4CC4)cc3)n2)CC1` [Example 55, N-(1-(4-cyclopropylphenyl)-3-(1-isopropylpiperidin-4-yl)-1H-pyrazol-5-yl)pyrazolo[1,5-a]pyrimidine-3-carboxamide], the IC50 is less than 0.1 µM.
`Cc1ccc(-n2nc(C3CCC(C(=O)N(C)C)CC3)cc2NC(=O)c2cnn3cccnc23)cc1` (stereo not shown) [Example 96, N-(3-(4-(dimethylcarbamoyl)cyclohexyl)-1-(p-tolyl)-1H-pyrazol-5-yl)pyrazolo[1,5-a]pyrimidine-3-carboxamide]: the IC50 was less than 0.1 µM.
Same read-out and setting: in the case of `COC(=O)N1CCC(c2cc(NC(=O)c3cnn4cc(Br)cnc34)n(-c3ccc(C)cc3)n2)CC1` [Example 118, methyl 4-(5-(6-bromopyrazolo[1,5-a]pyrimidine-3-carboxamido)-1-(p-tolyl)-1H-pyrazol-3-yl)piperidine-1-carboxylate] it was less than 0.1 µM; in that of `Cc1ccc(-n2nc(C3=CCN(S(C)(=O)=O)CC3)cc2NC(=O)c2cnn3cccnc23)cc1` [Example 139, N-(3-(1-(methylsulfonyl)-1,2,3,6-tetrahydropyridin-4-yl)-1-(p-tolyl)-1H-pyrazol-5-yl)pyrazolo[1,5-a]pyrimidine-3-carboxamide], less than 0.1 µM; in that of `Cc1ccc(-n2nc(C3CCN(C(=O)C4(O)CCC4)CC3)cc2NC(=O)c2cnn3cc(Br)cnc23)cc1` [Example 116, 6-bromo-N-(3-(1-(1-hydroxycyclobutanecarbonyl)piperidin-4-yl)-1-(p-tolyl)-1H-pyrazol-5-yl)pyrazolo[1,5-a]pyrimidine-3-carboxamide], less than 0.1 µM.
Still for that read-out and setting: in the case of `Cc1ccc(-n2nc(C3CCN(C4CCOCC4)CC3)cc2NC(=O)c2cnn3cccnc23)cc1` [Example 206] it was less than 0.1 µM; in that of `CS(=O)(=O)N1CCC(c2cc(NC(=O)c3cnn4cccnc34)n(-c3ccc(C=O)cn3)n2)CC1` [Example 165, N-(1-(5-formylpyridine-2-yl)-3-(1-(methylsulfonyl)piperidin-4-yl)-1H-pyrazol-5-yl)pyrazolo[1,5-a]pyrimidine-3-carboxamide], less than 0.1 µM.
In the case of `CCS(=O)(=O)c1ccc(-c2cc(NC(=O)c3cnn4cccnc34)n(-c3ccc(C)cc3)n2)cc1` [Example 352, N-{3-[4-(ethylsulfonyl)phenyl]-1-(4-methylphenyl)-1H-pyrazol-5-yl}pyrazolo[1,5-a]pyrimidine-3-carboxamide], the IC50 is less than 0.1 µM.
For `Cc1ccc(-n2nc(C3CCN(C(C)C)CC3)cc2NC(=O)c2cnn3cccnc23)c(F)c1` [Example 58, N-(1-(2-fluoro-4-methylphenyl)-3-(1-isopropylpiperidin-4-yl)-1H-pyrazol-5-yl)pyrazolo[1,5-a]pyrimidine-3-carboxamide], the IC50 is less than 0.1 µM.
On the same count and under the same terms, as for `CCCC(C)N1CCC(c2cc(NC(=O)c3cnn4cccnc34)n(-c3ccc(C)cc3)n2)CC1` (stereo not shown) [Example 210], the figure is less than 0.1 µM; as for `Cc1ccc(-n2nc(C3CCN(C(C)C)CC3)cc2NC(=O)c2cnn3cccnc23)cc1` [Example 37, N-(3-(1-isopropylpiperidin-4-yl)-1-(p-tolyl)-1H-pyrazol-5-yl)pyrazolo[1,5-a]pyrimidine-3-carboxamide], less than 0.1 µM.
For the compound `Cc1ccc(-n2nc(C3CCN(C(C)C)CC3)cc2NC(=O)c2cnn3cccnc23)nc1` [Example 270, N-{3-[1-(1-methylethyl)piperidin-4-yl]-1-(5-methylpyridin-2-yl)-1H-pyrazol-5-yl}pyrazolo[1,5-a]pyrimidine-3-carboxamide], the IC50 was less than 0.1 µM.
In turn, `Cc1ccc(-n2nc(C3CCN(Cc4ccccc4)CC3)cc2NC(=O)c2cnn3cccnc23)cc1` [Example 218, N-[3-(1-benzylpiperidin-4-yl)-1-(4-methylphenyl)-1H-pyrazol-5-yl]pyrazolo[1,5-a]pyrimidine-3-carboxamide] yielded an IC50 of more than 0.1 µM.
In turn, `Cc1ccc(-n2nc(N3CCN(C4CCC4)CC3)cc2NC(=O)c2cnn3cccnc23)nc1` [Example 320, N-[3-(4-cyclobutylpiperazin-1-yl)-1-(5-methylpyridin-2-yl)-1H-pyrazol-5-yl]pyrazolo[1,5-a]pyrimidine-3-carboxamide] returned an IC50 of less than 0.1 µM.
`O=C(Nc1cc(C2CCN(C3CCC3)CC2)nn1-c1ccc(C2CC2)cc1F)c1cnn2cccnc12` [Example 75, N-(3-(1-cyclobutylpiperidin-4-yl)-1-(4-cyclopropyl-2-fluorophenyl)-1H-pyrazol-5-yl)pyrazolo[1,5-a]pyrimidine-3-carboxamide] showed an IC50 of less than 0.1 µM.

The same assay, now with this note: 100 μM ATP, 30 minutes at 25° C.; μM.
Turning to `COC(=O)C1CCC(c2cc(NC(=O)c3cnn4cccnc34)n(-c3ccc(C)cc3)n2)CC1` (stereo not shown) [Example 93, methyl 4-(5-(pyrazolo[1,5-a]pyrimidine-3-carboxamido)-1-(p-tolyl)-1H-pyrazol-3-yl)cyclohexanecarboxylate], the IC50 was more than 1 µM.
The same measure, in the same setting: in the case of `CS(=O)(=O)N1CCC(c2cc(NC(=O)c3cnn4cccnc34)n(-c3nccn3S(C)(=O)=O)n2)CC1` [Example 188, N-(1-(1-(methylsulfonyl)-1H-imidazol-2-yl)-3-(1-(methylsulfonyl)piperidin-4-yl)-1H-pyrazol-5-yl)pyrazolo[1,5-a]pyrimidine-3-carboxamide] it was more than 1 µM; in that of `Cc1ccc(-n2nc(C3CCN(S(C)(=O)=O)CC3)cc2NC(=O)c2cnn3cc(C#N)cnc23)cc1` [Example 121, 6-cyano-N-(3-(1-(methylsulfonyl)piperidin-4-yl)-1-(p-tolyl)-1H-pyrazol-5-yl)pyrazolo[1,5-a]pyrimidine-3-carboxamide], less than 1 µM.
`Cc1ccc(-n2nc(C3CCN(S(=O)(=O)c4cccc(F)c4)CC3)cc2NC(=O)c2cnn3cccnc23)cc1` [Example 379, N-[3-{1-[(3-fluorophenyl)sulfonyl]piperidin-4-yl}-1-(4-methylphenyl)-1H-pyrazol-5-yl]pyrazolo[1,5-a]pyrimidine-3-carboxamide] had an IC50 of less than 1 µM.
Take `Cc1ccc(-n2nc(C3CCN(C(=O)CO)CC3)cc2NC(=O)c2cnn3cc(Br)cnc23)cc1` [Example 112, 6-bromo-N-(3-(1-(2-hydroxyacetyl)piperidin-4-yl)-1-(p-tolyl)-1H-pyrazol-5-yl)pyrazolo[1,5-a]pyrimidine-3-carboxamide]: the IC50 was less than 1 µM.
For the compound `Cc1ccc(-n2nc(C3CCN(S(=O)(=O)c4cccc5cccnc45)CC3)cc2NC(=O)c2cnn3cccnc23)cc1` [Example 396, N-{1-(4-methylphenyl)-3-[1-(quinolin-8-ylsulfonyl)piperidin-4-yl]-1H-pyrazol-5-yl}pyrazolo[1,5-a]pyrimidine-3-carboxamide], the IC50 was less than 1 µM.
Compound `Cc1ccc(-n2nc(-c3ccncc3)cc2NC(=O)c2cnn3cccnc23)cc1F` [Example 128, N-(1-(3-fluoro-4-methylphenyl)-3-(pyridin-4-yl)-1H-pyrazol-5-yl)pyrazolo[1,5-a]pyrimidine-3-carboxamide] registered a concentration for half-maximal inhibition (IC50) of less than 1 µM.
Still for that read-out and setting: in the case of `Cc1ccc(-n2nc(C3CCN(Cc4nccs4)CC3)cc2NC(=O)c2cnn3cccnc23)cc1` [Example 222, N-{1-(4-methylphenyl)-3-[1-(1,3-thiazol-2-ylmethyl)piperidin-4-yl]-1H-pyrazol-5-yl}pyrazolo[1,5-a]pyrimidine-3-carboxamide] it was less than 1 µM; in that of `O=C(Nc1cc(-c2ccncc2)nn1-c1ccc(F)cc1)c1cnn2cccnc12` [Example 126, N-(1-(4-fluorophenyl)-3-(pyridin-4-yl)-1H-pyrazol-5-yl)pyrazolo[1,5-a]pyrimidine-3-carboxamide], less than 1 µM.
